From patent US9303032B2, “2-(pyridin-2YL)-1, 7-diaza-spiro [4.4] nonane-6-one compound as voltage-gated sodium channels modulator” (CONVERGENCE PHARMACEUTICALS LIMITED, priority 2011, dated 2016)
Counter-ions that a name gives are not always drawn.

Target: T1, hNaV1.7 (Homo sapiens, UniProt Q15858)
T1 construct: expressed in transfected cells; host or cells: HEK293
Test: QPatch NaV1.7 assay
Format: cell-based
Settings: HEK293-hNaV1.7 cells; holding potential −90 mV, most channels in closed state; read-out: QP Nav1.7 −90 mV pIC50 (converted)
Method: The compounds of the invention were tested in a QPatch NaV1.7 assay.
HEK293-hNaV1.7 cells were grown in DMEM-F12+10% FBS culture media at 37° C. At a confluency of 50-70% cells were dissociated from culture flasks & triturated to ensure unicellular cell suspension; cell density was measured & adjusted to 2-3×10^6 cells/ml. Recordings were obtained using QPatch16×. The external solution was (in mM): NaCl, 128; KCl, 5; MgCl2, 2; CaCl2, 2; Glucose, 30; HEPES, 15; pH 7.3, 305-315 mOsm. Following seal formation and whole-cell access using internal solution (containing in mM: CsF, 135; EGTA/CsOH, ⅕; HEPES 10; NaCl, 10; pH 7.3, 310-320 mOsM), voltage pulse protocols were applied. Initially a steady state inactivation voltage protocol was used to determine the half-maximal voltage for steady state inactivation (V1/2 SSI). Two holding voltages were used to determine test drug inhibition: −90 mV, where most of the channels are in a closed state; and V1/2 SSI, where half of the channels are inactivated. Currents were elicited every 10 seconds by stepping to a membrane potential of 0 mV for 20 ms. Four-point cumulative concentration responses were derived by determining the peak current amplitude at each concentration of test drug over 120 second application. Curves were fitted with the Hill equation yielding pIC50 values at −90 mV and V1/2 SSI holding potentials.

T1 sequence (Q15858 whole entry): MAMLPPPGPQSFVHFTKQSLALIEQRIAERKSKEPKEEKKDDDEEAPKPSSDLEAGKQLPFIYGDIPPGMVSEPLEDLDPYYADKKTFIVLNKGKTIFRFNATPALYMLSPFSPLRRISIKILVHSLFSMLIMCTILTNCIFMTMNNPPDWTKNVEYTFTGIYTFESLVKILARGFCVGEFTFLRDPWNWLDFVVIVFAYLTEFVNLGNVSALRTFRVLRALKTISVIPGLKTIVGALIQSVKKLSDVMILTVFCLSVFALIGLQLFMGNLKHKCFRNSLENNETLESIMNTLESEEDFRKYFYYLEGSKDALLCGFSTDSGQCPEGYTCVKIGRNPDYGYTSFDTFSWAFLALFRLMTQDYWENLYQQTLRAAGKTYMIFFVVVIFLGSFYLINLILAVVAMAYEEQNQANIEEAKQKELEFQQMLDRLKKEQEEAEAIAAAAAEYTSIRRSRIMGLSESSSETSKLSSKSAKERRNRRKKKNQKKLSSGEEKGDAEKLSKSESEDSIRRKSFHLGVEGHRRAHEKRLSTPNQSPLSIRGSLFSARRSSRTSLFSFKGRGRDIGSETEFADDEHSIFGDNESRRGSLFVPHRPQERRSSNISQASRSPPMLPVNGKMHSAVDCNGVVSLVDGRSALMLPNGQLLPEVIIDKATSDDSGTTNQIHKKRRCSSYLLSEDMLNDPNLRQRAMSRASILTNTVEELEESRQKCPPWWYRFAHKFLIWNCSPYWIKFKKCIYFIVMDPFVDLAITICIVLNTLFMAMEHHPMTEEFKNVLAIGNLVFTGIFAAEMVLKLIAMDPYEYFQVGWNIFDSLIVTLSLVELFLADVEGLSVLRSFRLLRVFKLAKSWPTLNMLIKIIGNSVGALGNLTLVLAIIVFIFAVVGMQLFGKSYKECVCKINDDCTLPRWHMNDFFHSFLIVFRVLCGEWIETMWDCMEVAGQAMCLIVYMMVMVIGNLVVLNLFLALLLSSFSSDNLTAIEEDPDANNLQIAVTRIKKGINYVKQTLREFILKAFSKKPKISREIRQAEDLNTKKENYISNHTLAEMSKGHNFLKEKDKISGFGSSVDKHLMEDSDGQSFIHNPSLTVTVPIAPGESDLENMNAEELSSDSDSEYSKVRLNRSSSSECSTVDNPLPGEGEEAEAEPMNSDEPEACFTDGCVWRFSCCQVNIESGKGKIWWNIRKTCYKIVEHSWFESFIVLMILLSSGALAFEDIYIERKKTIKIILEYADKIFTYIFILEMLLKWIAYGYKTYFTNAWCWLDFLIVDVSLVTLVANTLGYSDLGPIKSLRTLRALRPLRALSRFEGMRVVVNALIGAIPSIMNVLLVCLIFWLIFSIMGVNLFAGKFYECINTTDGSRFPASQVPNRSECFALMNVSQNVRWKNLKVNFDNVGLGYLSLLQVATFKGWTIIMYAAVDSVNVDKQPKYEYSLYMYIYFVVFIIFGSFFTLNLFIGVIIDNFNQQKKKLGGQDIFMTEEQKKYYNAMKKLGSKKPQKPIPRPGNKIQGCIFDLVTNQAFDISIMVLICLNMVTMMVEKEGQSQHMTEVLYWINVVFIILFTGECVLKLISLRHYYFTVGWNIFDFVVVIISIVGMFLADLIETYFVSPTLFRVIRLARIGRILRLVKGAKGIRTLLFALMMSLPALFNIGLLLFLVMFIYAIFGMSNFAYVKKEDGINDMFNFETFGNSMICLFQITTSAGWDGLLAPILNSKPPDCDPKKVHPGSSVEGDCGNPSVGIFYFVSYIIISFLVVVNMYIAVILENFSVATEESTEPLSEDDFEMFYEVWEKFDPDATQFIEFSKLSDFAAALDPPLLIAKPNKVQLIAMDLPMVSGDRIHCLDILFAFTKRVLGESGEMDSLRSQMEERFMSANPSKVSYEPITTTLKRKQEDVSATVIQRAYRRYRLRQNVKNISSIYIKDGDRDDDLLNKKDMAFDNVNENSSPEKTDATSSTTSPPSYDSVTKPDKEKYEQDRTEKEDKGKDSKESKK

- IC50: 50.1 µM
Structure (SMILES): CN1CC[C@@]2(CC[C@H](c3cc(-c4cccc(OC(F)(F)F)c4)ccn3)N2)C1=O [Example 1, (2R,5S)-7-Methyl-2-[4-[3-(trifluoromethoxy)phenyl]-2-pyridyl]-1,7-diazaspiro[4.4]nonan-6-one hydrochloride]
